What all share (type): cell-based
Test [1] deals with Helminthosporium sesamum IAM 5012. The experiment in a line: antimicrobial activity, minimum inhibitory concentration. The conditions noted are these: IAM5012.
Test [2] has as its system Staphylococcus aureus FDA 209P. The test is described as above. The conditions noted are these: FDA209P.
The subject of test [3] is Debaryomyces kloeckeri IFO 0015. Described as above. The conditions noted are these: IFO0015.
Test [4] relates to Candida albicans NHL 4019. The test is described as above. The following applies: NHL4019.
Test [5] deals with Candida albicans Yu-1200. The description is as above. The following applies: YU1200.
Test [6] has as its system Saccharomyces cerevisiae ATCC 9763. Described as above. The conditions noted are these: ATCC9763.
For test [7], the system named is Piricularia oryzae IAM 5016. The experiment in a line: microbe, parasite or virus in culture. The conditions noted are these: read-out: Minimum inhibitory concentration (MIC).
Test [8] has as its system Bacillus subtilis ATCC 6633. The experiment in a line: antimicrobial activity, minimum inhibitory concentration. The conditions noted are these: ATCC6633.

≈ marks a conversion by molar mass, not a printed value. Bounds are passed on as bounds.

Drawing on patent publication US4977275A, “Pyrrole derivatives” (SS Pharmaceutical Co., Ltd., priority 1988, dated 1990), this text covers MIC for three compounds.

`CCCCCCC(=O)Oc1ccccc1C(=O)c1[nH]c(Cl)c(Cl)c1I` [Compound 6, 2-(2-heptanoyloxybenzoyl)-3-iodo-4,5-dichloropyrrole]: the MIC in test [1] turned out to be 6.25 µg/mL (≈ 12.6 µM); in test [2], 0.39 µg/mL (≈ 0.789 µM); in test [3] it was 12.5 µg/mL (≈ 25.3 µM); in test [4], 12.5 µg/mL (≈ 25.3 µM); in test [5], 12.5 µg/mL (≈ 25.3 µM); in test [6] it was 12.5 µg/mL (≈ 25.3 µM). The MIC in test [7] was less than 0.2 µg/mL; in test [8] it was 0.39 µg/mL (≈ 0.789 µM).
Take `CCCCCCC(=O)Oc1ccc(F)cc1C(=O)c1[nH]c(Br)c(Br)c1Br` [Compound 2, 2-(2-Heptanoyloxy-5-fluorobenzoyl)-3,4,5-tribromopyrrole]: the MIC in test [1] was 6.25 µg/mL (≈ 11.3 µM); in test [2] it was less than 0.2 µg/mL; in test [3] it was 12.5 µg/mL (≈ 22.6 µM); in test [4] it was 12.5 µg/mL (≈ 22.6 µM); in test [5] it was 12.5 µg/mL (≈ 22.6 µM); in test [6], 12.5 µg/mL (≈ 22.6 µM). For the same compound, the MIC in test [7] and in test [8] was less than 0.2 µg/mL each time.
With `O=C(CCCl)Oc1ccccc1C(=O)c1[nH]c(Cl)c(Cl)c1I` [Compound 9, 2-[2-(3-Chloropropionyloxy)benzoyl]-3-iodo-4,5-dichloropyrrole], the MIC was 6.25 µg/mL (≈ 13.2 µM) in test [1]; less than 0.2 µg/mL in test [2]; 12.5 µg/mL (≈ 26.5 µM) in test [3]; 6.25 µg/mL (≈ 13.2 µM) in test [4]; 6.25 µg/mL (≈ 13.2 µM) in test [5]; 12.5 µg/mL (≈ 26.5 µM) in test [6]. Besides, the MIC in test [7] and in test [8] was less than 0.2 µg/mL throughout.
